pKd: −log10 of the molar value.
Tests used:
KIT kinase = KIT kinase (Homo sapiens (Human), UniProt P10721); experiment: Competition binding assay (Kd), KIT
Experimental: In certain embodiments, competition binding assays were performed as described in Fabian et al., Nature Biotechnology 2005, 23, 329-336.
Competition binding assays used herein were developed, validated and performed as described in Fabian et al., Nature Biotechnology 2005, 23, 329-336. Kinases were produced as fusions to T7 phage (See, Fabian et al. or WO04/015142) or alternatively, the kinases were expressed in HEK-293 cells and subsequently tagged with DNA for PCR detection (See, WO08/005,310). […] The liganded beads were blocked with excess biotin and washed with blocking buffer (SeaBlock (Pierce), 1% BSA, 0.05% Tween 20, 1 mM DTT) to remove unbound ligand and to reduce non-specific binding. […] Test compounds were prepared as 100× stocks in DMSO and diluted into the aqueous environment. Kds were determined using an eleven point threefold serial dilutions. DMSO or control compounds were was added to control assays lacking a test compound. […] The kinase concentration in the eluates was measured by quantitative PCR. […]

FLT3 kinase = FLT3 kinase (Homo sapiens (Human), UniProt P36888); experiment: Competition binding assay (Kd), FLT3
Sequence of FLT3 kinase (P36888 27-993): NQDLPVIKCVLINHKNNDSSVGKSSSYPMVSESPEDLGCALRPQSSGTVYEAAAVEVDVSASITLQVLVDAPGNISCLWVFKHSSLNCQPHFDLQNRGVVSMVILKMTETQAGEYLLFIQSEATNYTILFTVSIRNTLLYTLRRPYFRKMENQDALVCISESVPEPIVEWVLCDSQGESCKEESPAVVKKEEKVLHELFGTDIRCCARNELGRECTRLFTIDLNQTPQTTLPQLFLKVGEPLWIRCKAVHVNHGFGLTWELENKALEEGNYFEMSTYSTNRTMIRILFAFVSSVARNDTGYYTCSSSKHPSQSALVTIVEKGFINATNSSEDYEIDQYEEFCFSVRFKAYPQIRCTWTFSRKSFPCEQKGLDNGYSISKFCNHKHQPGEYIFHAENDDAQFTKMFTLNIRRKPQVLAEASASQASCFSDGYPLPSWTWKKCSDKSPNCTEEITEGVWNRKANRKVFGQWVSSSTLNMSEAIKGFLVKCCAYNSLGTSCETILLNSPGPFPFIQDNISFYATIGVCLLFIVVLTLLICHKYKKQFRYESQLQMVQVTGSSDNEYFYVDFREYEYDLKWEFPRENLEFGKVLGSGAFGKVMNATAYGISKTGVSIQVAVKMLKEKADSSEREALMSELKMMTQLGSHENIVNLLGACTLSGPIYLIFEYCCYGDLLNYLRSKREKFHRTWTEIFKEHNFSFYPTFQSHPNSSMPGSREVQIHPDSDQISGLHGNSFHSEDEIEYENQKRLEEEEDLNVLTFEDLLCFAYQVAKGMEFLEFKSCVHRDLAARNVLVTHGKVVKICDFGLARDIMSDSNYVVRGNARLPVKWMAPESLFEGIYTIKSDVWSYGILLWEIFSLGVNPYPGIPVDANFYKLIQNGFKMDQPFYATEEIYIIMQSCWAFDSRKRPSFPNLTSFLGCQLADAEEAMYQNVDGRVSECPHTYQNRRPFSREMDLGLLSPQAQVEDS

Sequence of KIT kinase (P10721 26-976): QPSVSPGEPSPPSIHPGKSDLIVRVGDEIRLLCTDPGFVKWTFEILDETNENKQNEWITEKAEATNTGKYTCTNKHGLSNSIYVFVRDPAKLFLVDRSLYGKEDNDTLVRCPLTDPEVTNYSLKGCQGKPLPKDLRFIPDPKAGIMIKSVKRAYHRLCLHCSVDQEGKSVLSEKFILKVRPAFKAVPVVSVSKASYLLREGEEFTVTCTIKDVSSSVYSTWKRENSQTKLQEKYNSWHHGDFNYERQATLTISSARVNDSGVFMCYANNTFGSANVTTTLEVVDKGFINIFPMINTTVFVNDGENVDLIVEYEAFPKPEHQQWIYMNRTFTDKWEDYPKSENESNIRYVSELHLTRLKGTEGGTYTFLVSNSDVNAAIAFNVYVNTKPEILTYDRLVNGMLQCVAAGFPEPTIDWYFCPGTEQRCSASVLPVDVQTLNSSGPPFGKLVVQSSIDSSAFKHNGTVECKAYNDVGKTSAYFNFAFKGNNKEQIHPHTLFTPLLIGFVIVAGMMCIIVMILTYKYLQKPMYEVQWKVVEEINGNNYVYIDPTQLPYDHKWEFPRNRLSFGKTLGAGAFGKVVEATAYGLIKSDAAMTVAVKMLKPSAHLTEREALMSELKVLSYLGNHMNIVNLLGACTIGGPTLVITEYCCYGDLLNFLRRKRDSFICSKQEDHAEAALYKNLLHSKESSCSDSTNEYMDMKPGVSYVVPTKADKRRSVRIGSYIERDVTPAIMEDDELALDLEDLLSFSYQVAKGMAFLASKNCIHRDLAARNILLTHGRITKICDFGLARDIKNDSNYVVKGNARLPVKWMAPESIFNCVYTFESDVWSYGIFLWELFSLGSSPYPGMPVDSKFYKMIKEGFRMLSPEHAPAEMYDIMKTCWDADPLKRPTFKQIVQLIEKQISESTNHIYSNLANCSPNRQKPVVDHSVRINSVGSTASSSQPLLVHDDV

SMILES | pKd (KIT kinase; competition binding assay) | pKd (FLT3 kinase; competition binding assay) | pKd (KIT kinase; competition binding) | pKd (FLT3 kinase; competition binding)
COc1cc2nc(-c3ccc(CC(=O)Nc4cc(C5(C(F)(F)F)CC5)on4)c(F)c3)cnc2cc1OCCN(C)C(C)=O [Example 176, 2-[4-[6-[2-[acetyl(methyl)amino]ethoxy]-7-methoxy-quinoxalin-2-yl]-2-fluoro-phenyl]-N-[5-[1-(trifluoromethyl)cyclo-propyl]isoxazol-3-yl]acetamide] | > 8.30 | > 8.30 |  | 
COc1cc2ncc(-c3ccc(CC(=O)Nc4cc(C5(C(F)(F)F)CC5)on4)c(F)c3)cc2cc1OCCO [Example 179, 2-[2-fluoro-4-[6-(2-hydroxyethoxy)-7-methoxy-3-quinolyl]phenyl]-N-[5-[1-(trifluoromethyl)cyclo-propyl]isoxazol-3-yl]acetamide] | > 8.30 | > 8.30 |  | 
COc1cc2ncc(-c3ccc(CC(=O)Nc4cc(C5(C(F)(F)F)CC5)n[nH]4)c(F)c3)nc2cc1OC [Example 180, 2-[4-(6,7-dimethoxyquinoxalin-2-yl)-2-fluoro-phenyl]-N-[3-[1-(trifluoromethyl)cyclo-propyl]-1H-pyrazol-5-yl]acetamide] | > 8.30 | > 8.30 |  | 
COc1cc2ncc(-c3ccc(CC(=O)Nc4cc(C(C)(C)C(F)(F)F)nn4C)c(F)c3)nc2cc1OC [Example 181, 2-[4-(6,7-dimethoxyquinoxalin-2-yl)-2-fluoro-phenyl]-N-[2-methyl-5-(2,2,2-trifluoro-1,1-dimethyl-ethyl)pyrazol-3-yl]acetamide] | > 8.30 | > 8.30 |  | 
COc1cc2ncc(-c3ccc(CC(=O)Nc4cc(C(C)(C)C(F)(F)F)on4)c(F)c3)nc2cc1O [Example 184, 2-[2-fluoro-4-(7-hydroxy-6-methoxy-quinoxalin-2-yl)phenyl]-N-[5-(2,2,2-trifluoro-1,1-dimethyl-ethyl)isoxazol-3-yl]acetamide] | > 8.30 | > 8.30 |  | 
COc1cc2ncc(-c3ccc(CC(=O)Nc4cc(C(C)(C)C(F)(F)F)on4)c(F)c3)nc2cc1OCCN1CCOCC1 [Example 187, 2-[2-fluoro-4-[6-methoxy-7-(2-morpholino-ethoxy)quinoxalin-2-yl]phenyl]-N-[5-(2,2,2-trifluoro-1,1-dimethyl-ethyl)isoxazol-3-yl]acetamide] |  |  | > 8.30 | > 8.30
COc1cc2ncc(-c3ccc(CC(=O)Nc4cc(C5(C(F)(F)F)CC5)on4)c(F)c3)cc2cc1OCCN1CCOCC1 [Example 190, 2-[2-fluoro-4-[7-methoxy-6-(2-morpholinoethoxy)-3-quinolyl]phenyl]-N-[5-[1-(trifluoromethyl)cyclo-propyl]isoxazol-3-yl]acetamide] |  |  | > 8.30 | > 8.30
COc1cc2ncc(-c3ccc(CC(=O)Nc4cc(C(C)(C)C(F)(F)F)on4)c(F)c3)nc2cc1OCCN1CC[C@H](O)C1 [Example 191, 2-[2-fluoro-4-[7-[2-[(3S)-3-hydroxypyrrolidin-1-yl]ethoxy]-6-methoxy-quinoxalin-2-yl]phenyl]-N-[5-(2,2,2-trifluoro-1,1-dimethyl-ethyl)isoxazol-3-yl]acetamide] |  |  | > 8.30 | > 8.30
COc1cc2ncc(-c3ccc(CC(=O)Nc4cc(C5(C(F)(F)F)CC5)on4)c(F)c3)cc2cc1OCCN [Example 192, 2-[4-[6-(2-aminoethoxy)-7-methoxy-3-quinolyl]-2-fluoro-phenyl]-N-[5-[1-(trifluoromethyl)cyclo-propyl]isoxazol-3-yl]acetamide] |  |  | > 8.30 | > 8.30
COc1cc2ncc(-c3ccc(CC(=O)Nc4cc5n(n4)CCC5(C)C)c(F)c3)nc2cc1OC [Example 194, 2-[4-(6,7-dimethoxyquinoxalin-2-yl)-2-fluoro-phenyl]-N-(4,4-dimethyl-5,6-dihydropyrrolo[1,2-b]pyrazol-2-yl)acetamide] |  |  | > 8.30 | > 8.30
CNCCOc1cc2nc(-c3ccc(CC(=O)Nc4cc(C(C)(C)C(F)(F)F)on4)c(F)c3)cnc2cc1OC [Example 196, 2-[2-fluoro-4-[6-methoxy-7-[2-(methyl-amino)ethoxy]quinoxalin-2-yl]phenyl]-N-[5-(2,2,2-trifluoro-1,1-dimethyl-ethyl)isoxazol-3-yl]acetamide] |  |  | > 8.30 | > 8.30
COc1cc2cc(-c3ccc(CC(=O)Nc4cc(C(C)(C)C(F)(F)F)on4)c(F)c3)cnc2cc1OCCN1CCOCC1 [Example 197, 2-[2-fluoro-4-[6-methoxy-7-(2-morpholinoethoxy)-3-quinolyl]phenyl]-N-[5-(2,2,2-trifluoro-1,1-dimethyl-ethyl)isoxazol-3-yl]acetamide] |  |  | > 8.30 | > 8.30

Other lines, results leading:

pKd (KIT kinase; competition binding assay) | pKd (FLT3 kinase; competition binding assay) | pKd (KIT kinase; competition binding) | pKd (FLT3 kinase; competition binding) | SMILES
> 8.30 | > 8.30 |  |  | COc1cc2nc(-c3ccc(CC(=O)Nc4cc(C5(C(F)(F)F)CC5)on4)c(F)c3)cnc2cc1OCCN1CC(C)OC(C)C1 (centres unmarked) [Example 174, 2-[4-[6-[2-(2,6-dimethylmorpholin-4-yl)ethoxy]-7-methoxy-quinoxalin-2-yl]-2-fluoro-phenyl]-N-[5-[1-(trifluoro-methyl)cyclo-propyl]isoxazol-3-yl]acetamide]
> 8.30 | > 8.30 |  |  | CNCCOc1cc2ncc(-c3ccc(CC(=O)Nc4cc(C5(C(F)(F)F)CC5)on4)c(F)c3)nc2cc1OC [Example 175, 2-[2-fluoro-4-[7-methoxy-6-[2-(methyl-amino)ethoxy]quinoxalin-2-yl]phenyl]-N-[5-[1-(trifluoro-methyl)cyclo-propyl]isoxazol-3-yl]acetamide]
> 8.30 | > 8.30 |  |  | COCCOc1cc2cc(-c3ccc(CC(=O)Nc4cc(C(C)(C)C(F)(F)F)on4)c(F)c3)cnc2cc1OC [Example 177, 2-[2-fluoro-4-[7-methoxy-6-(2-methoxyethoxy)-3-quinolyl]phenyl]-N-[5-(2,2,2-trifluoro-1,1-dimethyl-ethyl)isoxazol-3-yl]acetamide]
> 8.30 | > 8.30 |  |  | COc1cc2ncc(-c3ccc(CC(=O)Nc4cc(C(C)(C)C(F)(F)F)on4)c(F)c3)cc2cc1OCCO [Example 178, 2-[2-fluoro-4-[6-(2-hydroxyethoxy)-7-methoxy-3-quinolyl]phenyl]-N-[5-(2,2,2-trifluoro-1,1-dimethyl-ethyl)isoxazol-3-yl]acetamide]
> 8.30 | > 8.30 |  |  | COc1cc2ncc(-c3ccc(CC(=O)Nc4cc(C(C)(C)C(F)(F)F)n[nH]4)c(F)c3)nc2cc1OC [Example 182, 2-[4-(6,7-dimethoxyquinoxalin-2-yl)-2-fluoro-phenyl]-N-[3-(2,2,2-trifluoro-1,1-dimethyl-ethyl)-1H-pyrazol-5-yl]acetamide]
> 8.30 | > 8.30 |  |  | COc1cc2nc(-c3ccc(CC(=O)Nc4cc(C5(C(F)(F)F)CC5)on4)c(F)c3)cnc2cc1OCC#N [Example 183, 2-[4-[6-(cyanomethoxy)-7-methoxy-quinoxalin-2-yl]-2-fluoro-phenyl]-N-[5-[1-(trifluoromethyl)cyclo-propyl]isoxazol-3-yl]acetamide]
 |  | > 8.30 | > 8.30 | COc1cc2nc(-c3ccc(CC(=O)Nc4cc(C5(C(F)(F)F)CC5)on4)c(F)c3)cnc2cc1OCCn1cncn1 [Example 185, 2-[2-fluoro-4-[7-methoxy-6-[2-(1,2,4-triazol-1-yl)ethoxy]quinoxalin-2-yl]phenyl]-N-[5-[1-(trifluoro-methyl)cyclopropyl]isoxazol-3-yl]acetamide]
 |  | > 8.30 | > 8.30 | COc1cc2nc(-c3ccc(CC(=O)Nc4cc(C5(C(F)(F)F)CC5)on4)c(F)c3)cnc2cc1OCC(=O)N(C)C [Example 186, 2-[4-[6-[2-(dimethylamino)-2-oxo-ethoxy]-7-methoxy-quinoxalin-2-yl]-2-fluoro-phenyl]-N-[5-[1-(trifluoro-methyl)cyclopropyl]isoxazol-3-yl]acetamide]
 |  | > 8.30 | > 8.30 | COCCOc1cc2cc(-c3ccc(CC(=O)Nc4cc(C5(C(F)(F)F)CC5)on4)c(F)c3)cnc2cc1OC [Example 188, 2-[2-fluoro-4-[7-methoxy-6-(2-methoxyethoxy)-3-quinolyl]phenyl]-N-[5-[1-(trifluoromethyl)cyclo-propyl]isoxazol-3-yl]acetamide]
 |  | > 8.30 | > 8.30 | COc1cc2ncc(-c3ccc(CC(=O)Nc4cc(C(C)(C)C(F)(F)F)on4)c(F)c3)cc2cc1OCCN1CCOCC1 [Example 189, 2-[2-fluoro-4-[7-methoxy-6-(2-morpholinoethoxy)-3-quinolyl]phenyl]-N-[5-(2,2,2-trifluoro-1,1-dimethyl-ethyl)isoxazol-3-yl]acetamide]
 |  | > 8.30 | > 8.30 | COc1cc2ncc(-c3ccc(CC(=O)Nc4cc(C5(C(F)(F)F)CC5)on4)c(F)c3)cc2cc1OCCNC(C)=O [Example 193, 2-[4-[6-(2-acetamidoethoxy)-7-methoxy-3-quinolyl]-2-fluoro-phenyl]-N-[5-[1-(trifluoromethyl)cyclo-propyl]isoxazol-3-yl]acetamide]
 |  | > 8.30 | > 8.30 | COc1cc2nc(-c3ccc(CC(=O)Nc4cc(C5(C(F)(F)F)CC5)on4)c(F)c3)cnc2cc1OCCCO [Example 195, 2-[2-fluoro-4-[6-(3-hydroxypropoxy)-7-methoxy-quinoxalin-2-yl]phenyl]-N-[5-[1-(trifluoromethyl)cyclo-propyl]isoxazol-3-yl]acetamide]
 |  | > 8.30 | > 8.30 | COc1cc2ncc(-c3ccc(CC(=O)Nc4cc(C(C)(C)C(F)(F)F)on4)c(F)c3)nc2cc1OCCN(C)C(C)=O [Example 198, 2-[4-[7-[2-[acetyl(methyl)amino]ethoxy]-6-methoxy-quinoxalin-2-yl]-2-fluoro-phenyl]-N-[5-(2,2,2-trifluoro-1,1-dimethyl-ethyl)isoxazol-3-yl]acetamide]

— patent publication US9725465B2, “Biaryl acetamide compounds and methods of use thereof” (Ambit Biosciences Corporation, priority 2013, dated 2017)
